Results: publication PMC7023435 (Pharmaceutics, 2020)

Key:
Caco-2 cell monolayers = assay: In vitro insulin permeation and TEER across Caco-2 cell monolayers, PE:insulin in microcontainers or solution; format: in vitro ADME; details: Caco-2, apical to basolateral, 2 h, 37 °C, 75 rpm, hHBSS pH 7.4 with 0.05% BSA, PE:insulin 1:4 w/w, RP-HPLC UV 214 nm, n = 3 passages in triplicate
Description: Cell culturing was done in DMEM supplemented with FBS (10%, v/v), L-glutamine (2 mM), penicillin (100 U/mL), streptomycin (100 µg/mL) and NEAA (1%, v/v) for 21–23 days at 37 °C and 5% CO2 with a final density of 1 × 10^5 cells/cm^2. […] The transepithelial electrical resistance (TEER) of the Caco-2 cell monolayers was measured upon equilibration to room temperature using an Epithelial Volt/Ohm Meter (World Precision Instruments, Sarasota, FL, USA) with Endohm™ chambers. First recording took place in culture medium prior to the permeation study; after which, the monolayers were washed twice with permeation buffer consisting of 10 mM HEPES in HBSS (hHBSS) supplied with BSA (0.05%, w/v), NaHCO3 (0.38%, w/v) and adjusted to pH 7.4. […] Each of the three different studies per PE was carried out in triplicates and across three passages with all studies conducted within eight passages. […] The MC chips were then removed from the Caco-2 cell monolayers, followed by washing twice with hHBSS before TEER was recorded again.
In vitro permeation samples without proteolysis were separated on a Kinetex XB-C18 column (100 × 4.6 mm, 5 µm, 100 Å; Phenomenex, Torrance, CA, USA), with two mobile phases of A: 0.1% (v/v) TFA in water and B: 0.1% (v/v) TFA in acetonitrile. […]

epithelial integrity = details: cited from earlier work
Text: The effect of local high PE concentrations on the monolayer under the opening of C10-releasing MCs has previously been visualized by laser-scanning confocal microscopy of cell monolayers cultured on Transwell® filters. Furthermore, we have previously shown that the monolayers, u ...

[1] = system: porcine intestinal tissue; assay: Ex vivo intestinal permeation study in Franz diffusion cells; format: in vitro ADME, pig; details: Franz diffusion cell, hDMEM, 37 °C, 3 h, MC chip on mucosa, insulin by ELISA, n = 3
Description: The jejunum and ileum were collected from an anaesthetized pig (approx. 40 kg) immediately before it was euthanized. […] Intestinal segments of 10–20 cm were prepared and stored at −20 °C until the day of the permeation study. Prior to the study, a segment was thawed in 10 mM HEPES-buffered DMEM (hDMEM) and longitudinally cut open. Luminal contents were washed away with hDMEM and the muscularis was removed using tweezers before the mucosa was cut into 4 × 4 cm pieces and placed in Franz diffusion cells. Each receptor compartment was filled with 7 mL of hDMEM facing the serosal side of the intestinal tissue. The donor side, facing the mucosa, was filled with 1.5 mL FD70 solution (100 µg/mL) in hDMEM to imitate the inclusion of a pathogen. Permeation was initiated by placing a chip of loaded MCs directly on top with the openings facing the mucosa.

[2] = target: α-chymotrypsin from bovine pancreas (Bos taurus, UniProt P00766); details: insulin 600 µg/mL, FaSSIF, 37 °C, RP-HPLC
Description: The compatibility of integrating proteolysis in the in vitro permeation setup was then tested by measuring TEER and viability as the metabolic activity of Caco-2 cell monolayers after 2 h of apical exposure to different concentrations of α-chymotrypsin (0, 10, 50 and 100 µg/mL) in hHBSS. Viability was determined after washing the cells with fresh hHBSS followed by the apical addition of 1.5 mL freshly made MTS (240 µg/mL) and PMS solution (2.4 µg/mL) in hHBSS before incubation in dark conditions for 1.5 h with 75 rpm orbital shaking at 37 °C. The absorbance at 492 nm of three 100 µL samples from each well was measured in a 96-well plate using a Multiskan MS 352 Microplate Reader (Labsystems, Helsinki, Finland).

[3] = oral dosage form of insulin using C10, high doses required; cited from earlier work
[4] = system: Caco-2 cell monolayers with apical α-chymotrypsin; assay: Combined in vitro permeation and proteolysis; details: absence of protease inhibition (insulin:SDS:MCC MCs), apical α-chymotrypsin 0.49 U/mL, 37 °C, RP-HPLC
Description: Cell culturing was done in DMEM supplemented with FBS (10%, v/v), L-glutamine (2 mM), penicillin (100 U/mL), streptomycin (100 µg/mL) and NEAA (1%, v/v) for 21–23 days at 37 °C and 5% CO2 with a final density of 1 × 10^5 cells/cm^2. […] The transepithelial electrical resistance (TEER) of the Caco-2 cell monolayers was measured upon equilibration to room temperature using an Epithelial Volt/Ohm Meter (World Precision Instruments, Sarasota, FL, USA) with Endohm™ chambers. […] The MC chips were then removed from the Caco-2 cell monolayers, followed by washing twice with hHBSS before TEER was recorded again.
The compatibility of integrating proteolysis in the in vitro permeation setup was then tested by measuring TEER and viability as the metabolic activity of Caco-2 cell monolayers after 2 h of apical exposure to different concentrations of α-chymotrypsin (0, 10, 50 and 100 µg/mL) in hHBSS. Viability was determined after washing the cells with fresh hHBSS followed by the apical addition of 1.5 mL freshly made MTS (240 µg/mL) and PMS solution (2.4 µg/mL) in hHBSS before incubation in dark conditions for 1.5 h with 75 rpm orbital shaking at 37 °C. The absorbance at 492 nm of three 100 µL samples from each well was measured in a 96-well plate using a Multiskan MS 352 Microplate Reader (Labsystems, Helsinki, Finland). […]

[5] = in vivo; cited from earlier work
Text: For overcoming the absorption barrier, PEs have been developed and studied both for paracellular enhancement by tight junction opening and transcellular e ...

CCCCCCCCCC(=O)[O-].[Na+] [C10, n-Capric acid sodium salt]
potency as PE based on the insulin permeation rates (Caco-2 cell monolayers): equal in vitro potency to C12-carnitine | concentration inducing in vitro permeation (epithelial integrity; in the order): ~10 mM

CCCCCCCCCCCCOS(=O)(=O)[O-].[Na+] [SDS, sodium dodecyl sulfate]
potency as PE based on the insulin permeation rates (Caco-2 cell monolayers): significantly more potent PE when compared to C10 and C12-carnitine | barrier integrity after exposure (epithelial integrity; 2 h exposure to 0.40 mM SDS): irreversible deterioration of barrier integrity | SDS concentration resulting in immediate loss of epithelial integrity (epithelial integrity; concentrations as low as): 0.40 mM | insulin permeation across porcine intestinal tissue [1]: significantly higher insulin permeation

insulin (human recombinant)
native insulin remaining ([2]; after 45–60 min, without STI, α-chymotrypsin 0.49 U/mL): approximately 20% | native insulin degraded after 2 h ([2]; α-chymotrypsin 10 µg/mL (0.49 U/mL), 12 µg/mL STI, n = 3): more than 90% | glycemic control [3]: glycemic control similar to subcutaneously administered insulin | insulin digested on the apical side after 2 h [4]: Almost all

semaglutide
oral bioavailability [5]: 0.1–1.2%
